Laboratory results from US10730884B2, “Substituted indole compound derivatives as dengue viral replication inhibitors” (Janssen Pharmaceuticals, Inc., priority 2016, dated 2020).
Read-outs that look alike come from different tables or passages of the source.

Experiments:
DENV-2 16681 strain = assay: DENV-2 antiviral assay (eGFP-labeled virus, Vero cells); type: cell-based, Dengue virus; conditions: for EC50: DENV-2 16681 eGFP, Vero cells, MOI 0.5, 3 days; for SI: SI=CC50/EC50, DENV-2 antiviral assay
Description: The antiviral activity of all the compounds of the invention was tested against the DENV-2 16681 strain which was labeled with enhanced green fluorescent protein (eGPF). The culture medium consists of minimal essential medium supplemented with 2% of heat-inactivated fetal calf serum, 0.04% gentamycin (50 mg/mL) and 2 mM of L-glutamine. Vero cells, obtained from ECACC, were suspended in culture medium and 25 μL was added to 384-well plates (2500 cells/well), which already contain the antiviral compounds. Typically, these plates contain a 5-fold serial dilution of 9 dilution steps of the test compound at 200 times the final concentration in 100% DMSO (200 nL). […] Finally, each plate contains wells which are assigned as virus controls (containing cells and virus in the absence of compound), cell controls (containing cells in the absence of virus and compound) and medium controls (containing medium in the absence of cells, virus and compounds). To the wells assigned as medium control, 25 μL of culture medium was added instead of Vero cells. Once the cells were added to the plates, the plates were incubated for 30 minutes at room temperature to allow the cells to distribute evenly within the wells. Next, the plates were incubated in a fully humidified incubator (37° C., 5% CO2) until the next day. Then, DENV-2 strain 16681, labeled with eGFP, was added at a multiplicity of infection (MOI) of 0.5. Therefore, 15 μL of virus suspension was added to all the wells containing test compound and to the wells assigned as virus control. In parallel, 15 μL of culture medium was added to the medium and cell controls. Next, the plates were incubated for 3 days in a fully humidified incubator (37° C., 5% CO2). At the day of the read out, the eGFP fluorescence was measured using an automated fluorescence microscope at 488 nm (blue laser). Using an in-house LIMS system, inhibition dose response curves for each compound were calculated and the half maximal effective concentration (EC50) was determined. Therefore, the percent inhibition (I) for every test concentration is calculated using the following formula: I=100*([…])/(SVC−SCC); ST, SCC and SVC are the amount of eGFP signal in the test compound, cell control and virus control wells, respectively. The EC50 represents the concentration of a compound at which the virus replication is inhibited with 50%, as measured by a 50% reduction of the eGFP fluorescent intensity compared to the virus control. The EC50 is calculated using linear interpolation (Table 1).

in vitro = conditions: African green monkey
DENV-4 strain H241 = assay: Tetravalent RT-qPCR assay, serotype 4; type: cell-based, Dengue virus; conditions: for EC50: RT-qPCR serotype 4 H241, Protocol A, Vero cells, day 3; for SI: RT-qPCR serotype 4 H241
Description: (§1) The antiviral activity of the compounds of the invention was tested against DENV-1 strain TC974#666 (NCPV), DENV-2 strain 16681, DENV-3 strain H87 (NCPV) and DENV-4 strain H241 (NCPV) in a RT-qPCR assay. Therefore, Vero cells were infected with either DENV-1, or -2, or -3, or -4 in the presence or absence of test compounds. At day 3 post-infection, the cells were lysed and cell lysates were used to prepare cDNA of both a viral target (the 3′UTR of DENV; Table 2) and a cellular reference gene (β-actin, Table 2). Subsequently, a duplex real time PCR was performed on a Lightcycler480 instrument. The generated Cp value is inversely proportional to the amount of RNA expression of these targets. Inhibition of DENV replication by a test compound result in a shift of Cp's for the 3′UTR gene. On the other hand, if a test compound is toxic to the cells, a similar effect on β-actin expression will be observed. The comparative ΔΔCp method is used to calculate EC50, which is based on the relative gene expression of the target gene (3′UTR) normalized with the cellular housekeeping gene (β-actin). In addition, CC50 values are determined based on the Cp values acquired for the housekeeping gene β-actin.
(§2) The culture medium consisted of minimal essential medium supplemented with 2% of heat-inactivated fetal calf serum, 0.04% gentamycin (50 mg/mL) and 2 mM of L-glutamine. Vero cells, obtained from ECACC, were suspended in culture medium and 75 μL/well was added in 96-well plates (10000 cells/well), which already contain the antiviral compounds. […] In addition, each plate contains wells which are assigned as virus controls (containing cells and virus in the absence of compound) and cell controls (containing cells in the absence of virus and compound). Once the cells were added in the plates, the plates were incubated in a fully humidified incubator (37° C., 5% CO2) until the next day. Dengue viruses serotype-1, 2, 3 and 4 were diluted in order to obtain a Cp of ˜22-24 in the assay. Therefore, 25 μL of virus suspension was added to all the wells containing test compound and to the wells assigned as virus control. In parallel, 25 μL of culture medium was added to the cell controls. Next, the plates were incubated for 3 days in a fully humidified incubator (37° C., 5% CO2). After 3 days, the supernatant was removed from the wells and the cells were washed twice with ice-cold PBS (˜100 μL). The cell pellets within the 96-well plates were stored at −80° C. for at least 1 day. Next, RNA was extracted using the Cells-to-CT™ lysis kit, according to the manufacturer's guideline (Life Technologies). The cell lysates can be stored at −80° C. or immediately used in the reverse transcription step.
(§3) In preparation of the reverse transcription step, mix A (table 3A) was prepared and 7.57 μL/well was dispensed in a 96-well plate. After addition of 5 μL of the cell lysates, a five minute denaturation step at 75° C. was performed (table 3B). Afterwards, 7.43 μL of mix B was added (table 3C) and the reverse transcription step was initiated (table 3D) to generate cDNA.
(§4) Finally, a RT-qPCR mix was prepared, mix C (table 4A), and 22.02 μL/well was dispensed in 96-well LightCycler qPCR plates to which 3 μL of cDNA was added and the qPCR was performed according to the conditions in table 4B on a LightCycler 480.
(§5) Using the LightCycler software and an in-house LIMS system, dose response curves for each compound were calculated and the half maximal effective concentration (EC50) and the half maximal cytotoxic concentration (CC50) were determined (Tables 5-8).

DENV-1 strain TC974#666 = assay: Tetravalent RT-qPCR assay, serotype 1; type: cell-based, Dengue virus; conditions: for EC50: RT-qPCR serotype 1 TC974#666, Protocol A, Vero cells, day 3, read-out: EC50; for SI: RT-qPCR serotype 1 TC974#666
Description: as §1, §2, §3, §4, §5

DENV-2 strain 16681 = assay: Tetravalent RT-qPCR assay, serotype 2; type: cell-based, Dengue virus; conditions: for EC50: RT-qPCR serotype 2 16681, Protocol A, Vero cells, day 3; for SI: RT-qPCR serotype 2 16681
Description: as §1, §2, §3, §4, §5

DENV-3 strain H87 = assay: Tetravalent RT-qPCR assay, serotype 3; type: cell-based, Dengue virus; conditions: for EC50: RT-qPCR serotype 3 H87, Protocol A, Vero cells, day 3, read-out: EC50; for SI: RT-qPCR serotype 3 H87
Description: as §1, §2, §3, §4, §5

Vero cells = conditions: African green monkey
[1] = Dengue virus, DENV2, Vero, 72 h
[2] = Dengue virus, DENV4, Vero, 72 h
[3] = Dengue virus, DENV1, Vero, 72 h
[4] = Dengue virus, DENV3, Vero, 72 h

Row | Compound | SI (DENV-2 16681 strain) | CC50 (in vitro) [µM] | EC50 (DENV-4 strain H241; [2]) [µM] | EC50 (DENV-1 strain TC974#666; [3]) [µM] | EC50 (DENV-2 16681 strain) [µM] | EC50 (DENV-3 strain H87; [4]) [µM] | other results
1 | COc1cc(NC(C(=O)c2c[nH]c3cc(OC(F)(F)F)c(C)cc23)c2ccc(F)cc2OC)cc(OCCO)c1 (racemic) [Compound 4, 2-(4-fluoro-2-methoxyphenyl)-2-((3-(2-hydroxyethoxy)-5-methoxyphenyl)amino)-1-(5-methyl-6-(trifluoromethoxy)-1H-indol-3-yl)ethanone] | 359 | 3.9 | – | – | – | – | EC50 (DENV-2 16681 strain; [1]): 0.011 µM
2 | CCOc1cc2[nH]cc(C(=O)C(Nc3cc(OC)cc(OCCO)c3)c3ccc(F)cc3OC)c2cc1C (racemic) [Compound 6, 1-(6-ethoxy-5-methyl-1H-indol-3-yl)-2-(4-fluoro-2-methoxyphenyl)-2-((3-(2-hydroxyethoxy)-5-methoxyphenyl)amino)ethanone] | 3160 | 5.7 | – | – | – | – | EC50 (DENV-2 16681 strain; [1]): 0.0018 µM
3 | COc1cc(NC(C(=O)c2c[nH]c3cc(F)ccc23)c2ccc(Cl)cc2OC)cc(OCCOP(=O)(O)O)c1 (racemic) [Compound 13-P, 2-(3-((1-(4-chloro-2-methoxyphenyl)-2-(6-fluoro-1H-indol-3-yl)-2-oxoethyl)amino)-5-methoxyphenoxy)ethyl dihydrogen phosphate] | 5210 | 11 | – | – | – | – | EC50 (DENV-2 16681 strain; [1]): 0.0021 µM
4 | COc1cc(NC(C(=O)c2c[nH]c3cc(F)ccc23)c2ccc(Cl)cc2OC)cc(OCCOP(=O)(O)O)c1 (single isomer, unassigned) [13A-P^b] | – | 11 | 0.25 | 0.0042 | 0.00048 | 0.042 | EC50 (DENV-4 strain H241; listed as 13A-P^c): 0.23 µM; EC50 (DENV-1 strain TC974#666; listed as 13A-P^c): 0.0044 µM; EC50 (DENV-2 16681 strain; listed as 13A-P^c): 0.00094 µM; EC50 (DENV-2 strain 16681): 0.00097 µM; EC50 (DENV-2 strain 16681; listed as 13A-P^c): 0.00044 µM; EC50 (DENV-3 strain H87; listed as 13A-P^c): 0.028 µM
5 | COc1cc(NC(C(=O)c2c[nH]c3c(C)cc(Cl)cc23)c2ccc(F)cc2OC)cc(OCCO)c1 (single isomer, unassigned) [Compound 1B] | 148 | – | – | – | 0.072 | – | CC50 (Vero cells): 11 µM
6 | COc1cc(NC(C(=O)c2c[nH]c3cc(OC)c(Cl)cc23)c2ccc(F)cc2OC)cc(OCCO)c1 (single isomer, unassigned) [Compound 2B] | 85 | – | – | – | 0.13 | – | CC50 (Vero cells): 11 µM
7 | COc1cc(NC(C(=O)c2c[nH]c3cc(OC(F)(F)F)c(C)cc23)c2ccc(F)cc2OC)cc(OCCO)c1 (single isomer, unassigned) [Compound 4A] | 5.4 | 3.4 | – | – | 0.63 | – | –
8 | COc1cc(NC(C(=O)c2c[nH]c3cc4c(cc23)CCO4)c2ccc(F)cc2OC)cc(OCCO)c1 (single isomer, unassigned) [Compound 7A] | 13700 | 10 | 0.38 | 0.0078 | 0.001 | 0.063 | SI (DENV-4 strain H241): 12; SI (DENV-1 strain TC974#666): 713; EC50 (DENV-2 strain 16681; [1]): 0.0016 µM; SI (DENV-2 strain 16681): 5930; SI (DENV-3 strain H87): 76
9 | COc1cc(NC(C(=O)c2c[nH]c3c4c(ccc23)OCC4)c2ccc(F)cc2OC)cc(OCCO)c1 (single isomer, unassigned) [Compound 8A] | 4240 | 12 | 0.71 | 0.02 | 0.0043 | 0.15 | SI (DENV-4 strain H241): 20; SI (DENV-1 strain TC974#666): 560; EC50 (DENV-2 strain 16681; [1]): 0.0081 µM; SI (DENV-2 strain 16681): 1530; SI (DENV-3 strain H87): 64
10 | COc1cc(NC(C(=O)c2c[nH]c3cc(F)c(C)cc23)c2ccc(Cl)cc2OC)cc(OCCO)c1 (single isomer, unassigned) [Compound 9A] | 70 | 3.7 | – | – | 0.052 | – | –
11 | COc1cc(NC(C(=O)c2c[nH]c3cc4c(cc23)CCO4)c2ccc(Cl)cc2OC)cc(OCCO)c1 (single isomer, unassigned) [Compound 10A] | 44 | 4.9 | – | – | 0.11 | – | –
12 | COc1cc(NC(C(=O)c2c[nH]c3c4c(ccc23)OCC4)c2ccc(Cl)cc2OC)cc(OCCO)c1 (single isomer, unassigned) [Compound 11A] | 7460 | 6 | 0.27 | 0.0085 | 0.00088 | 0.028 | SI (DENV-4 strain H241): >9.1; SI (DENV-1 strain TC974#666): 1350; EC50 (DENV-2 strain 16681; [1]): 0.0019 µM; SI (DENV-2 strain 16681): 2490; SI (DENV-3 strain H87): 359
13 | COc1cc(NC(C(=O)c2c[nH]c3cc(OC)c(C)c(F)c23)c2ccc(Cl)cc2OC)cc(OCCO)c1 (single isomer, unassigned) [Compound 12A] | 1200 | 5.6 | – | – | 0.006 | – | –
14 | [2H]C(Nc1cc(OC)cc(OCCO)c1)(C(=O)c1c[nH]c2cc(F)ccc12)c1ccc(Cl)cc1OC (single isomer, unassigned) [Compound 13A-D] | 24300 | 11 | 0.21 | 0.0052 | 0.00046 | 0.036 | SI (DENV-4 strain H241): 24; SI (DENV-1 strain TC974#666): 3070; EC50 (DENV-2 strain 16681; [1]): 0.00061 µM; SI (DENV-2 strain 16681): >8520; SI (DENV-3 strain H87): >96
